According to a melting point compilation (Tetko et al.; mined from patent text by program, amines drawn as free bases though some values may be those of a salt):

| SMILES | melting point [°C] |
| --- | --- |
| CC1COC(C(=O)C(C)(C)C)C(C(=O)C(C)(C)C)O1 (centres undefined) | 123 |
| Cc1cc(Cl)c([N+](=O)[O-])cc1NCCO | 110 |
| O=C1C(Cl)=CC(=NS(=O)(=O)c2cccs2)c2ccccc21 | 167 to 169 |
| CCCCc1ccc(OC)c(-c2csc(NC(=O)c3ccc(C(=O)CCN4CCC(NC(C)=O)C4)cc3)n2)c1 (centres undefined) | 112 |
| COc1ccc(-c2nc(-c3ccccc3)c(N(C)c3ccccc3)s2)cc1 | 100 to 101 |
| COc1cc(F)c(-c2ccc3nc(C(=O)NC(Cc4ccc(OCc5ccccc5)cc4)C(=O)O)cn3c2)c(F)c1 (centres undefined) | 219 |
| COc1ccc(/C=C(/C(=O)O)c2cc(OC)c(OC)c(OC)c2)cc1 | 187 to 189 |
| CC(=O)SCC(=Cc1ccccc1)C(=O)NCCC(=O)OCc1ccccc1 | 80 |
| O=C(NCC12CC3CC(CC(C3)C1)C2)c1cc(-c2cc(F)c(F)cc2C(=O)O)ccc1Cl | 121 to 125 |
| CC(=O)CC(=O)Nc1ccc(Br)cc1C | 109 |
| O=C(O)C1CCCc2c1ccc1c2OCO1 (centres undefined) | 225 to 257 |
| O=Cc1ccc(OC[C@H]2CCCN2c2ncnc3[nH]cnc23)c2ccccc12 | 167 to 168 |
| CN1CCC23CC(=O)CCC2C1Cc1ccccc13 (centres undefined) | 164 to 166 |
| CCc1cccc(C)c1CNc1cc(Cl)nc2c1nc(C)n2C | 157 to 159 |
| CON1CCN2C(=O)C(c3cc(C)ccc3C)C(=O)N2CC1 | 167 to 169 |
| COc1cc(OC)c(-c2cccs2)cc1C#CC(=O)c1ccc(C(=O)O)cc1 | 220 |
| CCOC(=O)c1cc(C(=O)C(C)(C)Br)c(=O)[nH]c1C(=O)OCC | 124 to 126 |
| COc1ccc(S(=O)(=O)F)cc1NC(C)=O | 162 to 164 |
| CCCNc1nc(N)c2ncn(C3C=CCCC3)c2n1 (centres undefined) | 73 to 80 |
| CCOC1C=CC(=O)N1 (centres undefined) | 50 to 52 |

| SMILES | melting point [°C] |
| --- | --- |
| C=CCN1CCc2cc(OC)c(OC)c3c2C1Cc1cc(OC)c(OC)cc1-3 (single isomer, unassigned; (+)) | 139 to 143 |
| CCOc1ccc(C(=O)c2ccccc2F)c(Cl)c1Cl | 94 to 95 |
| COC(c1nnc2n1-c1ccc(Cl)cc1C(c1ccccc1)=NC2)C1COC(C)(C)O1 (centres undefined) | 130 to 134 |
| CC(C)(C)OC(=O)CN(C(=O)CNC(=O)Nc1ccc(Cl)cc1)c1ccccc1C(=O)c1ccccc1 | 196 to 197 |
| CCSC(=S)SC1NC(=O)C1C(C)C (centres undefined) | 65 to 66 |
| O=[N+]([O-])c1cc(C(O)CCN2CC=C(c3ccc(Cl)cc3)CC2)ccc1F (centres undefined) | 154 to 156 |
| CC(=O)NC[C@H]1CC(c2ccc(-c3ccncc3)cc2)=NO1 | 244 to 245 |
| CS(=O)c1ccnc(-c2nc(=O)c3ccccc3s2)c1 (centres undefined) | 205 to 206 |
| COc1ccc(OC)c(C=CC(=O)C=Cc2cc(OC)ccc2OC)c1 | 103 to 104 |
| Cc1c(-c2ccccc2)oc2c(C(=O)CCC(=O)O)cccc2c1=O | 191 to 192 |
| CCOc1ccc2ccc(F)c(F)c2c1F | 96.5 to 98.5 |
| COc1ccc(COC(=O)c2cc([N+](=O)[O-])c3ccccc3c2OS(=O)(=O)C(F)(F)F)cc1 | 74 to 75 |
| Cn1nc(-c2nc(C#Cc3ccccc3)c(N)nc2-c2ccccc2)ccc1=O | 234 to 236 |
| CNC(=O)Cn1c(-c2ccc(C)cc2)nc2ccc(Cl)nc21 | > 250 |
| CC(Br)=C(c1ccc(F)cc1)c1ccc(F)cc1 | 53 to 54 |
| OCc1ccc(O)c(CO)c1CNCCCCCCOCCc1ccco1 | 91 to 93 |
| O=c1ccn(-c2ccccc2N2CCOCC2)nc1-c1ccnn1-c1ccccc1 | 200 to 201 |
| CCC(=O)N[C@H]1CC[C@H](CCN2CCC(c3cccc4c3CCO4)CC2)CC1 | 192 |
| Cc1nn(C)c(-c2ccccc2)c1NC(N)=S | 258 to 260 |
